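Dose response: 5 concentrations. Exposure: 48 h. Format: 96-well plates. Endpoint: linear interpolation; highest concentration if not reached. At the GI50, growth is halved. Definition used: TGI = concentration required for complete inhibition of growth.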
Columns and labels:
Experiment in all cases: DTP human tumour cell line panel, 48 h
U251 CNS = tested on: U251 CNS
HOP-62 NSCLC = tested on: HOP-62 NSCLC
HOP-92 NSCLC = tested on: HOP-92 NSCLC
PC-3 prostate = tested on: PC-3 prostate
HL-60(TB) leukemia = tested on: HL-60(TB) leukemia
T-47D breast = tested on: T-47D breast
NCI-H522 lung = tested on: NCI-H522 lung
MCF7 breast = tested on: MCF7 breast
HCC-2998 colon = tested on: HCC-2998 colon
ACHN renal = tested on: ACHN renal

SMILES | GI50 (U251 CNS) [µM] | TGI (U251 CNS) [µM] | GI50 (HOP-62 NSCLC) [µM] | TGI (HOP-62 NSCLC) [µM] | GI50 (HOP-92 NSCLC) [µM] | TGI (HOP-92 NSCLC) [µM] | GI50 (PC-3 prostate) [µM] | TGI (PC-3 prostate) [µM] | GI50 (HL-60(TB) leukemia) [µM] | TGI (HL-60(TB) leukemia) [µM] | GI50 (T-47D breast) [µM] | TGI (T-47D breast) [µM] | GI50 (NCI-H522 lung) [µM] | TGI (NCI-H522 lung) [µM] | GI50 (MCF7 breast) [µM] | TGI (MCF7 breast) [µM] | GI50 (HCC-2998 colon) [µM] | TGI (HCC-2998 colon) [µM] | GI50 (ACHN renal) [µM] | TGI (ACHN renal) [µM]
ClC1=C(Cl)C(Cl)(C2(Cl)C(Cl)=C(Cl)C(Cl)=C2Cl)C(Cl)=C1Cl | 1.51 | 6.91 | 2.21 | 4.56 | 0.175 | 0.437 | 0.975 | 2.95 | 0.206 | 0.549 | 0.184 | 0.539 | 0.16 | 0.341 | 0.241 | 0.921 | 2.13 | 4 | 0.165 | 0.312
CNC(=O)Oc1cc(C(C)C)ccc1Sc1ccc(C(C)C)cc1OC(=O)NC | 3.5 | 15.6 | 9.56 | 22.6 | 2.63 | 9.85 | 2.97 | 16.9 | 3.06 | 12.7 | 10.2 | 25.9 | 4.98 | 19.1 | 5.49 | 18.2 | 12.2 | 27.7 | 6.92 | 24.4
O=C(O)c1ccc(N(/C=C/C(=O)C(F)(F)F)Cc2ccc(Cl)cc2)cc1 | 26.2 | 86.7 | 24.5 | 65.3 | 19.5 | 82.4 | 37.9 | > 100 | 40.2 | > 100 | 28.5 | 93.9 | 19.9 | 61.9 | > 100 | > 100 | 19.8 | 44.3 | 24.4 | 66
O=C(/C=C\c1ccc(O)c(O)c1)c1ccccc1O | 7.95 | 33.1 | 12.6 | 50.8 | 3.77 | 27.7 | 13.4 | 89.8 | 2.4 | 6.05 | 5.57 | 45.5 | 0.214 | 0.809 | 14.6 | > 100 | 13.9 | 27 | 8.31 | 24
CC(C)=CCc1cc2c(cc1O)C1=C(C(=O)C3=C(NCCS3(=O)=O)C1=O)C(C=C(C)C)O2 (stereo unspecified) | 4.19 | 13.9 | 8.59 | > 16.7 | 6.89 | > 16.7 | 5.58 | > 16.7 | 4.43 | 13.5 | 4.05 | > 16.7 | 2.93 | 9.09 | 2.86 | 7.84 | 9.25 | > 16.7 | 10.7 | > 16.7
CS(=O)(=O)OCCN(CCOS(C)(=O)=O)c1ccc(C=Nc2ccc(-c3csc(COc4ccccc4)n3)cc2)cc1 |  | 25 |  | 10.1 |  | 35 |  | 28.2 |  | 16.2 |  | > 51.8 |  | 0.868 |  | 81.8 |  | 7.59 |  | 2.32
CN1C(=O)C(c2c[nH]c3ccccc23)=C(c2c[nH]c3ccccc23)C1=O | 7.03 | > 25 | 6.68 | > 25 | 3.08 | 13.3 | 4.46 | > 25 | 6.37 | 18.1 | 6.57 | > 25 | 4.69 | 12.5 | 5.24 | > 24.1 | 5.46 | 13.1 | 6 | > 25
Cc1c2cnccc2c(C)c2c1c1ccccc1n2CCOC(=O)c1ccccc1 |  | 44.1 |  | 31.5 |  | 71.9 |  | > 100 |  | 26 |  | > 100 |  | 31.1 |  | 44.1 |  | 29.8 |  | 56.3
O=C1NC(=O)C(c2c[nH]c3ccccc23)=C1c1c[nH]c2ccccc12 | 10.2 | > 25 | 16.5 | > 25 | 5.72 | > 25 | 10.2 | > 25 | 11.1 | > 25 | 10.2 | > 25 | 8.11 | > 25 | 9.32 | > 25 | 16.2 | > 25 | 9.25 | > 25
O=P1(NCCCl)OCCCN1CCCl (stereo unspecified) |  | 431 |  | 444 |  | 367 |  | > 500 |  | 381 |  | > 500 |  | 360 |  | 388 |  | 427 |  | > 500
CCCCn1c(=O)[nH]c(N)c([C@@H]2c3c([nH]c(=O)n(CCCC)c3=O)Oc3ccc4ccccc4c32)c1=O | 1.73 | 3.32 | 1.5 | 4.72 | 2 | 6.5 | 1.65 | 3.23 | 2.47 | 6.75 | 10.7 | 37.6 | 2.57 | 6.36 | 2.88 | 24 | 1.67 | 3.47 | 1.8 | 3.59
C/C(=C\C(=O)O[C@H]1[C@@H]2[C@H](C)CC[C@H]2[C@]2(C)O[C@@]1(C1CCCCC1)C[C@H]2OC(=O)CO)c1ccccc1 | 6.02 | 11.5 | 7 | 13 | 2.07 | 8.09 | 5.05 | 10.9 | 5.04 | 13.1 | 5.44 | 12.1 | 6.55 | 13.1 | 5.4 | 11.9 | 7.32 | 14.4 | 0.0147 | 6.02
CCC(=C(c1ccc(OCCN2CCCCC2)cc1)c1ccc(OCCN2CCCCC2)cc1)c1ccc(Cl)cc1 | 3.42 | > 16.7 | > 16.7 | > 16.7 | 1.57 | > 16.7 | > 16.7 | > 16.7 | 3.41 | 9.55 | 9.62 | > 16.7 | 7.72 | > 16.7 | 0.761 | > 16.7 | 2.8 | > 16.7 | 7.12 | > 16.7
COc1cc(/C=C2\CC3C4CC=C5CC(OC(C)=O)CC[C@]5(C)C4CC[C@]3(C)C2=O)ccc1OCCN1CCCC1 (stereo partly specified) | 4.2 | 14.7 | 9.52 | 23 | 13.5 | 28.6 | 8.47 | 23.2 | 2.78 | 6.89 | 5.4 | > 91 | 10.5 | 26.6 | 2.69 | > 22.4 | 12.5 | 25 | 5.52 | 17.9
CCN1CCN(CCC(=O)Nc2cccc(-n3cc(-c4ccncc4)c(-c4ccc(Cl)c(OC)c4)n3)c2)CC1 | 0.484 | 1.76 | 0.697 | 2.43 | 0.776 | 6.43 | 0.448 | 2.02 | 0.34 | 1.13 | 0.841 | 4.7 | 0.275 | 1.19 | 0.267 | 1.45 | 1.27 | 2.63 | 0.782 | 2.71
N#CC1=C(N)Oc2c(sc3c(Br)cccc23)C1c1ccc([N+](=O)[O-])cc1 (stereo unspecified) | 0.151 | 11.8 | 0.123 | 14 | 0.0441 | 8.82 | 0.11 | 13.6 | 0.0816 | 1.15 | 0.84 | 25.3 | 0.0216 | 0.616 | 0.151 | 11.6 | 0.284 | 6.94 | 0.12 | 13
CC1CCCCCC(=O)c2c(O)cc(O)cc2CC(=O)O1 (stereo unspecified) |  | > 100 |  | > 100 |  | > 100 |  | > 100 |  | > 100 |  | > 100 |  | > 100 |  | > 100 |  | > 100 |  | > 100
Cc1c(Cl)cccc1C(=O)Nc1nc2c(s1)CN(C(=O)Nc1cccc(C(F)(F)F)c1)CC2 | 0.242 | > 50 | 0.278 | > 50 | 0.18 | 15.6 | 0.143 | > 50 | 0.149 |  | 0.239 | > 50 | 0.109 |  | 0.145 | > 50 | 0.647 | 8.52 | 0.326 | 
CC(=O)OCC1C(=O)OCC1C(=O)N1Cc2cc3ccccc3nc2C1 (stereo unspecified) |  | 24.9 |  | 32.7 |  | 3.77 |  | 20.1 |  | 11.9 |  | 5.69 |  | 2.23 |  | 3.14 |  | 22.9 |  | 3.39
N#CCCNc1nonc1-c1nc2ccccc2n1CC(=O)c1ccc(N)cc1 | 0.036 | > 100 | 0.0432 | > 100 | < 0.01 | 0.456 | 0.0271 | > 77.8 | < 0.0164 |  | 29 | > 100 | < 0.01 | < 0.01 | < 0.019 | > 100 | 0.0338 | > 100 | 0.0362 | > 100

— PubChem BioAssay (NCI)
